Test results as given in patent US8846918B2, “Compounds useful as inhibitors of ATR kinase” (Vertex Pharmaceuticals Incorporated, priority 2011, dated 2014).

Target: T1, ATR kinase (Homo sapiens, UniProt Q13535)
T1 construct: Assays were carried out at 25° C. in the presence of 5 nM full-length ATR
Assay: ATR Inhibition Assay (radioactive-phosphate incorporation)
Type: biochemical
Conditions: Ki(app); 5 nM full-length ATR, 10 μM ATP, 800 μM target peptide, 25° C.
Method: Compounds were screened for their ability to inhibit ATR kinase using a radioactive-phosphate incorporation assay. Assays were carried out in a mixture of 50 mM Tris/HCl (pH 7.5), 10 mM MgCl2 and 1 mM DTT. Final substrate concentrations were 10 μM [γ-33P]ATP (3 mCi 33P ATP/mmol ATP, Perkin Elmer) and 800 μM target peptide (ASELPASQPQPFSAKKK).
Assays were carried out at 25° C. in the presence of 5 nM full-length ATR. An assay stock buffer solution was prepared containing all of the reagents listed above, with the exception of ATP and the test compound of interest. 13.5 μL of the stock solution was placed in a 96 well plate followed by addition of 2 μL of DMSO stock containing serial dilutions of the test compound (typically starting from a final concentration of 15 μM with 3-fold serial dilutions) in duplicate (final DMSO concentration 7%). The plate was pre-incubated for 10 minutes at 25° C. and the reaction initiated by addition of 15 μL [γ-33P]ATP (final concentration 10 μM).
The reaction was stopped after […] by the addition of 300 μL 0.1M phosphoric acid containing 2 mM ATP. […]
After removing mean background values for all of the data points, Ki(app) data were calculated from non-linear regression analysis of the initial rate data using the Prism software package (GraphPad Prism version 3.0cx for Macintosh, GraphPad Software, San Diego Calif., USA).

T1 sequence (Q13535 whole entry): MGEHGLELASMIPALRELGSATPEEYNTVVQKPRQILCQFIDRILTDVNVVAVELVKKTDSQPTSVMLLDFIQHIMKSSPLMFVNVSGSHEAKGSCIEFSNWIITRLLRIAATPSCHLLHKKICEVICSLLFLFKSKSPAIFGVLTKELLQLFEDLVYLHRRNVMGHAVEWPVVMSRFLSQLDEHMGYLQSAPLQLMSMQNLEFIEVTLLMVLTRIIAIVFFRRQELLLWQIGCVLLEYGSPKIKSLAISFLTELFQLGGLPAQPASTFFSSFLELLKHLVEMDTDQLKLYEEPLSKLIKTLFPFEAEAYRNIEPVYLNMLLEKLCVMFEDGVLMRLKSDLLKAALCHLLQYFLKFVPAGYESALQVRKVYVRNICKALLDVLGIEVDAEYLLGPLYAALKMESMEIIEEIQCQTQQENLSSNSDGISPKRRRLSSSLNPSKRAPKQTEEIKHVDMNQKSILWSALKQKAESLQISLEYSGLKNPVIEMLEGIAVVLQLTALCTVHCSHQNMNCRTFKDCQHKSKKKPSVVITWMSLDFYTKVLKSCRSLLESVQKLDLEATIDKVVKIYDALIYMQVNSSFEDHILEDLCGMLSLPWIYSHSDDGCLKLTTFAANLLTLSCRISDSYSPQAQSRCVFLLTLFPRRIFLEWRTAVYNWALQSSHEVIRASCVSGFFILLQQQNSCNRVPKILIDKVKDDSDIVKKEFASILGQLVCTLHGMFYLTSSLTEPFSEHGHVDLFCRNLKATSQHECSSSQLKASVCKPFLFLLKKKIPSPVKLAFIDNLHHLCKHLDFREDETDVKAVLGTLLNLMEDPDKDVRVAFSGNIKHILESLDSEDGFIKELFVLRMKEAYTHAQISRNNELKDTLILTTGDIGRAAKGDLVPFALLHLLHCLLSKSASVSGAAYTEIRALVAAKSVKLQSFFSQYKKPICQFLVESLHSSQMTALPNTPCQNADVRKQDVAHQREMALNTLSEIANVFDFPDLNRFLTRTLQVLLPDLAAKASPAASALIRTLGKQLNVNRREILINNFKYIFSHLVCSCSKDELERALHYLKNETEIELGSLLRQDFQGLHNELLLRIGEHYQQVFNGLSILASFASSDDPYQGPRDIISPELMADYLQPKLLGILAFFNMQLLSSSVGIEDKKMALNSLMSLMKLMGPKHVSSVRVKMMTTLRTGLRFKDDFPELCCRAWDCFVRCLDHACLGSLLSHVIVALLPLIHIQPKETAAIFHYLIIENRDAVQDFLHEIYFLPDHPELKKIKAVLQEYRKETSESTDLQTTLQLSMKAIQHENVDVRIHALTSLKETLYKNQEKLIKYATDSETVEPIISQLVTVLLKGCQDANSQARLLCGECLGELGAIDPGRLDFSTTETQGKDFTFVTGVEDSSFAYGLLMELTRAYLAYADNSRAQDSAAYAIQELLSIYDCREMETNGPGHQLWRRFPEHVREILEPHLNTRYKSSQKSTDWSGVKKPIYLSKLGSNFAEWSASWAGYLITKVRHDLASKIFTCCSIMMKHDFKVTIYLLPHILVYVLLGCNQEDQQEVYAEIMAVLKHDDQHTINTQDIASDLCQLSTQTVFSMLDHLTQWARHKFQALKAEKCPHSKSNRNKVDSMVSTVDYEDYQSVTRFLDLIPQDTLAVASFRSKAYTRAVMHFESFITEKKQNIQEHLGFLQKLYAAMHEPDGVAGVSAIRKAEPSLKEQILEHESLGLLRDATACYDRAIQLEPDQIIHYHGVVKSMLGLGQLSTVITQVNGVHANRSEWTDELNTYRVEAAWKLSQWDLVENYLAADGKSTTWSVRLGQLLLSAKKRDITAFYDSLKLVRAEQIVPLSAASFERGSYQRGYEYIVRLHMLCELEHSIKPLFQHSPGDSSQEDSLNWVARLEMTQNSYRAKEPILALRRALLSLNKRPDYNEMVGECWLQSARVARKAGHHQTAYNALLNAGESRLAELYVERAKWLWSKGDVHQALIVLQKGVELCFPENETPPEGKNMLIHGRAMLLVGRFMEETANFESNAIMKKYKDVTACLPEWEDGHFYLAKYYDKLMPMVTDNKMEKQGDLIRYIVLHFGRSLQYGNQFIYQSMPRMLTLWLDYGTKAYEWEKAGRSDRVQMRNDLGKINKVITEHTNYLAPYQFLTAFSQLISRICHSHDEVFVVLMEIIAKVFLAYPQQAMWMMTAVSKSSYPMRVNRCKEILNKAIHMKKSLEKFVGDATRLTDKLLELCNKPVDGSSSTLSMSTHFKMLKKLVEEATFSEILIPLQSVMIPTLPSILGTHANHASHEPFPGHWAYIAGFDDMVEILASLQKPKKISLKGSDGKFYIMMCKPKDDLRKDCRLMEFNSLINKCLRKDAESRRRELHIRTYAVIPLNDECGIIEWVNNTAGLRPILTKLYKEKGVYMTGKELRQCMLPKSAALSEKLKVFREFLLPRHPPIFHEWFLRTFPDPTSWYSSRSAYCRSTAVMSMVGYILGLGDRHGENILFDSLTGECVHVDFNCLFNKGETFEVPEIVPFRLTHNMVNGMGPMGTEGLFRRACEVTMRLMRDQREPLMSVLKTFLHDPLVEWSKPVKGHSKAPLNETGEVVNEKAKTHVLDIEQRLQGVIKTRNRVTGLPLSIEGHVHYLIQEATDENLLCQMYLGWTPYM

| Ki | Molecule |
| --- | --- |
| 90 nM | 2-(4-(5-amino-6-(4-iodo-3-(4-(((tetrahydro-2H-pyran-4-yl)amino)methyl)phenyl)isoxazol-5-yl)pyrazin-2-yl)pyridin-2-yl)-2-methylpropanenitrile [Compound I-2] |
| 16 nM | CC(C)S(=O)(=O)c1ccc(-c2cnc(N)c(-c3onc(-c4ccc(CNC5CCOCC5)cc4)c3I)n2)cc1 [Compound I-1, 3-(4-iodo-3-(4-(((tetrahydro-2H-pyran-4-yl)amino)methyl)phenyl)isoxazol-5-yl)-5-(4-(isopropylsulfonyl)phenyl)pyrazin-2-amine] |
